Assay results as given in patent publication US20180000771A1, “AGENT FOR PREVENTING AND/OR TREATING AMYOTROPHIC LATERAL SCLEROSIS” (KYOTO UNIVERSITY, priority 2015, published 2018).

Tests used:
[1] = system: motoneuron cells derived from iPS cells of sporadic ALS patients; experiment: survival of motoneuron cells induced from sporadic ALS patient iPS cells; assay type: cell-based, human
[2] = system: motoneuron cells derived from iPS cells having SOD1-L144FVX mutation; experiment: survival of motoneuron cells induced from ALS patient iPS cells (SOD1 mutation)
[3] = system: motoneuron cells derived from iPS cells of ALS patients having C9orf72 mutation; experiment: survival of motoneuron cells induced from ALS patient iPS cells (C9orf72 mutation); assay type: cell-based, human; details: added on day 7, survived motoneuron cells counted on day 14
c-abl = experiment: Western blot of c-abl phosphorylation in nerve cells; assay type: cell-based, human; details: 1 μM, nerve cells having SOD1 mutation
Procedure: (§1) It is known that phosphorylation of Erk is promoted in nerve cells having mutation SOD1. To examine the mechanism of these candidate medicaments, phosphorylation of Erk was examined by Western blot method. The Western blot method included dissolving cells in RIPA buffer containing 0.1% SDS, 150 mM NaCl, 1% NP-40, 0.5% deoxycholate, 50 mM Tris-HCl (pH 8.0), protease inhibitor (Roche) and phosphatase inhibitor (Roche), centrifugation, measurement of protein concentration, addition of 20 μg amount of protein to each lane, and electrophoresis in 10-20% polyacrylamide gel. After blotting to Immobilon-P membrane (Millipore), the cells were stained with antibodies against Erk, phosphorylated Erk, c-Abl and phosphorylated c-Abl and detected.

Erk = experiment: Western blot of Erk phosphorylation in nerve cells; assay type: cell-based, human; details: 1 μM, nerve cells having SOD1 mutation
Procedure: as §1

[4] = system: nerve cell derived from iPS cell having SOD1-L144FVX mutation; experiment: neurite length of nerve cells derived from iPS cells; assay type: cell-based, human; details: 1 μM, cultured for 48 hr
Procedure: In detail, small clumps (diameter 40-100 μm) of iPS cell colonies were subjected to a filter treatment with Cell Strainer (BD Falcon), and cultured for 10 days in N2B27 medium [DMEM/F12, Neurobasal, N2 supplement, B27 supplement, L-Gln] added with 100 ng/ml human recombinant Noggin (R&D systems) and 1 μM SB431542 (Sigma) in a culture dish coated with poly-L-lysine (Sigma)/Laminin (BD Falcon) (PLL/LM). Then, the colonies were dissociated into small clumps with 200 U/ml collagenase added with CaCl2, and transferred into a culture dish coated with PLL/ECL (Millipore). After 7 days of culture, the cells were dissociated with Accutase (Innovative Cell Technologies), and cultured in a culture dish coated with PLL/ECL for 7 days (24 d). Finally, the cells dissociated with Accutase and selected by a 40 μm cell strainer (BD Falcon) were counted, cultured for 31 days (56d) in N2B27 medium added with 10 ng/ml BDNF, GDNF, and NT-3 (R&D systems) in a culture dish coated with PLL/LM/Fibronectin (Millipore) to give nerve cells from the iPS cells.

[5] = system: motoneuron cells derived from iPS cells having SOD1-L144FVX mutation; details: 168 h
[6] = added on day 7, survived motoneuron cells counted on day 14

In the case of `COc1cc2nccc(Oc3ccc(NC(=O)Nc4cc(C)on4)c(Cl)c3)c2cc1OC` [Tivozanib], the “efficacy for sporadic ALS (conclusion from Tables 5 and 6)” value [1] is reported as “higher efficacy”, the “cell survival rate improvement, sporadic” value [1, 6] is reported as “○ (cell survival rate improvement not less than 20%)” and the “cell survival rate improving effect, significance, sporadic” value [1, 6] is reported as “○ (significant difference (p < 0.05))”. The “efficacy for ALS having SOD1 mutation (conclusion from Tables 5 and 6)” value [2] was “higher efficacy”, the “dose correlation in the protection effect on motoneuron cell having SOD1 mutation” value ([2]; FIG. 2, FIG. 6) was “increase in the effect in a dose-dependent manner” and the “cell survival rate improvement, SOD1 mutation” value [2, 6] was “○ (cell survival rate improvement not less than 20%)”. The “cell survival rate improving effect, significance, SOD1 mutation” value [2, 6] was “○ (significant difference (p < 0.05))”, the “cell survival rate improvement, C9orf72 mutation” value [3] was “x (cell survival rate improvement less than 20%)” and the “cell survival rate improving effect, significance, C9orf72 mutation” value [3] was “○ (significant difference (p < 0.05))”. For the same compound, the phosphorylation of c-abl (c-abl) was “decreased”, the “phosphorylation of Erk” value (Erk) was “decreased” and the length of neuritis [4] was “elongation of neuritis”.

`CN(C)CCCn1cc(C2=C(c3c[nH]c4ccccc34)C(=O)NC2=O)c2ccccc21` [Bisindolyl-maleimide I, Bisindolylmaleimide I] was tested, and the “MN index (motoneuron cell survival number ratio as compared to negative control)” value [5] was 7.96.
